Each block holds one substance with its values, some of them ahead of it. Where no end group is shown, it is not given here.
Key:
[1] = tested on: purified bovine brain CaM; assay: GST-fusion protein pull-down with purified bovine brain CaM; format: binding; details: for relative binding efficiency for CaM versus wild type (in words): GST pull-down with fixed concentrations, data not shown; for relative binding efficiency for CaM / interaction with purified CaM (pull-down, in words): 50 pmol GST-fusion protein; for relative binding efficiency for CaM: purified bovine brain CaM, 100 mM Tris-HCl pH 7.5, 0.1 mM CaCl2, immunoblot density ratio, 5 independent experiments; for interaction with purified CaM (pull-down, in words): 50 pmol purified bovine CaM, 100 mM Tris-HCl pH 7.5, Ca2+ dependent (0.1 mM CaCl2 vs 1 mM EGTA), repeated five times
Method: (§1) GST-fusion proteins were expressed in E. coli BL21 strain cells, and purified by affinity chromatography using immobilized glutathione sepharose 4B beads. Proteins were eluted by reduced glutathione in 50 mM Tris-HCl buffer (pH 8.0), and then concentrated with Centricon filters with 3 kDa MW cut-off. The eluted proteins were either used immediately or stored at −80°C for future use. For GST-fusion protein pull-down assays, fusion proteins were incubated with either cell lysates or purified protein(s) at 4°C for 3 hours, following which glutathione-sepharose 4B beads were added and incubation continued at 4°C for 1 hour. The beads were then recovered by brief centrifugation, followed by 4 washes with the corresponding incubation buffer. The fusion proteins and the proteins to which they were bound were then separated by SDS-PAGE, and identified by staining with Coomassie blue or by immunoblot.
Figure 1 Interactions of the i3 loop and carboxyl tail of the AT1A receptor with CaM. A, Construction of GST-fusion proteins. Upper panel illustrates a schematic structure of the AT1A receptor and constructs of GST-fusion proteins of the i3 loop and carboxyl tail of the receptor. The numbers represent positions of amino acids in the receptor. The GST-fusion proteins were constructed, expressed in E. coli, purified by using gluthathione-sepharose 4B beads, separated by SDS-PAGE, and stained by Coomassie blue (lower panel). B. Interactions of the i3 loop or carboxyl tail of AT1A receptor with CaM in rat brain lysates (upper panel) and with purified bovine brain CaM (lower panel). 50 pmol of GST-fusion proteins were incubated with 500 µg of rat brain lysates in 250 µl of buffer containing 20 mM Tris-HCl, 70 mM NaCl, pH 7.5 with 1 mM EGTA or 0.1 mM CaCl2. Interacting protein complexes were pulled down by gluthathione-sepharose 4B beads, and visualized by immunoblot with a specific anti-CaM antibody. The same methods were applied to interactions with pure bovine CaM (50 pmol), except that the buffer contained 100 mM Tris-HCl (pH 7.5). These experiments were repeated five times with similar results.
Figure 3 CaM binding sites in the i3 loop and carboxyl tail of the AT1A receptor. A, Schematic representation of constructs of GST-fusion proteins. Four GST-fusion proteins containing truncated peptides in the i3 loop and carboxyl tail of the receptor were constructed, including GST-N-terminus of the i3 loop (GST-ATi3N), GST-C-terminus of the i3 loop (GST-ATi3C), GST-N-terminus of carboxyl tail (GST-ATctN) and GST-C-terminus of carboxyl tail (GST-ATctC). The numbers under the first or the last residues represent amino acid positions in the receptor. B, Interaction of GST-fusion proteins with CaM. The GST-fusion proteins (50 pmol) were incubated with purified bovine CaM (50 pmol) in 250 µl of buffer containing 100 mM Tris-HCl (pH 7.5) with 0.1 mM CaCl2. Proteins were pulled down by gluthathione-sepharose 4B beads, following which immunoblots were probed with a specific anti-CaM antibody. These experiments were repeated five times with similar results.
Figure 5 Effect of point mutations in ATi3N or ATctN on their interactions with CaM. A. Modeled structures of CaM-ATi3(214–231) and CaM-ATct(302–317). The complexes of CaM and CaM binding motif in the i3 loop ATi3(214–231) or the carboxyl terminal tail ATct(302–317) of the receptor were modeled as described in Experimental Procedures. The target peptides are colored in red. […] Calcium atoms are shown as orange spheres. The N- and C- termini of CaM are also labeled. Helices and sheets in CaM are colored in green and yellow, respectively. B. Effect of point mutations at ATi3N or ATctN on their interaction with CaM. […]

[2] = tested on: G protein βγ subunits; assay: GST-fusion protein pull-down of G protein βγ subunits, with or without CaM; format: binding, bovine; details: 2 pmol GST-fusion protein, 2 pmol Gβγ, CaM pre-incubated 30 minutes, 20 mM Tris-HCl, 70 mM NaCl, 0.1 mM CaCl2, pH 7.5; 4 or 5 experiments
Method: as §1
Figure 7 Effect of CaM on G protein βγ subunit interaction with wild ATi3 or ATct. A. Interaction of G protein βγ subunits and ATi3 or ATct. 50 pmol of GST-ATi3(213–242) or GST-ATct(297–359) were incubated with different amounts of G protein Gβγ subunits in a buffer containing 20 mM Tris-HCl and 70 mM NaCl (pH 7.5). Interactions were assessed by GST-fusion protein pull-down assay, and blots were probed with a specific antibody against Gβ subunits (upper panel). 1 pmol of Gβγ subunit was interacted with different amounts of GST-ATi3(213–242) and GST-ATct(297–359). Interaction was assessed by immunoblot against Gβ subunits (lower panel). B. CaM inhibits the interaction between G protein Gβγ subunits and ATi3 or ATct. 2 pmol of GST-ATi3(213–242) or GST-ATct(297–359) were incubated with different concentrations of pure bovine brain CaM for 30 minutes in a buffer (20 mM Tris-HCl and 70 mM NaCl with 0.1 mM CaCl2, pH 7.5) following which 2 pmol of Gβγ subunits were added and incubated for 1 hour. GST-fusion proteins and their interacting proteins were pulled down by gluthathione-sepharose 4B beads, and subjected to immunoblot. Blots were probed with a specific antibody against Gβ subunits. The summary graph represents means ± S.E. from four independent experiments. C. Effects of CaM on the interactions between G protein βγ subunits and mutated ATi3 and ATct. The method is same as the described in the Figure 7B, except that we used mutated GST-fusion proteins, GST-ATi3(213–242)W219A, ATct(297–359)F309A, and ATct(297–359)F313A. The summary graph represents mean ± S.E. from 4 or 5 independent experiments.

[3] = tested on: CaM in rat brain lysates; assay: GST-fusion protein pull-down from rat brain lysates; format: binding; details: 50 pmol GST-fusion protein, 500 µg rat brain lysates, 20 mM Tris-HCl, 70 mM NaCl, pH 7.5; Ca2+ dependent; repeated five times
Method: as §1
Figure 1 Interactions of the i3 loop and carboxyl tail of the AT1A receptor with CaM. A, Construction of GST-fusion proteins. Upper panel illustrates a schematic structure of the AT1A receptor and constructs of GST-fusion proteins of the i3 loop and carboxyl tail of the receptor. The numbers represent positions of amino acids in the receptor. […]

[4] = tested on: AT1A receptor-CaM interaction; assay: BRET between AT1A receptor-eYFP and RLuc-CaM / CaM-RLuc in HEK293 cells; format: cell-based, Human Embryonic Kidney 293 (HEK293) cells; details: 100 nM Ang II at 2, 4 and 6 minutes, compared with no Ang II
Method: We first stably transfected HEK293 cells with the AT1A receptor-eYFP vector by using lipofectamine 2000 solution according to the vendor’s (Invitrogen) instructions. […] The co-transfectants were detached with PBS buffer containing 1 mM EDTA, and distributed into 96 well plates at 10^5 cells/well (OptiPlate 96, Greiner Bio-One. Longwood, FL). Fluorescence measurements were acquired using a Victor2 multilabel plate reader (Perkin Elmer Life Sciences, Shelton, CT). […] The emission of light from YFP was measured both before and after stimulation with 100 nM of Ang II.
48 hours later, the cotransfectants were washed with saline pre-warmed at 37°C and calibrated in saline in a 37°C incubator for 30 minutes. […] Control co-transfectants were treated with equal amounts of saline (vehicle).

[5] = biological target: T1, CaM purified from bovine brain (dansyl-CaM) (Bos taurus, UniProt P62157); assay: Dansyl-CaM fluorescence emission spectrum shift; format: binding; details: dansyl-CaM 106 nM, 500 nM peptide + 0.1 mM calcium, 1 hour room temperature; shifted from 521 nm (EGTA); three experiments
T1 construct: CaM and G protein βγ subunits purified from bovine brain; purchased Calbiochem (La Jolla, CA); host or cells: bovine brain (tissue-purified)
Method: Dansyl-CaM was synthesized according to a standard method, [46], [47], [48]. 500 µl of CaM purified from bovine brain (2 mg/ml in a buffer containing 20 mM NH4HCO3, pH 7.4 and 1 mM CaCl2) was mixed with 1 µl of dansyl chloride (100 mg/ml in acetone) at 4°C C for 1 hour with agitation. The mixture was then applied to a Centricon 4 concentrator with 10 kDa MW cut-off to remove the unincorporated dye. Efficiencies of dansylation (0.18–0.34 mol of dansyl moiety per mol of CaM) were calculated by measurement of absorption at 320 nm using a molar extinction coefficient of 3400 M-1cm-1. For conformational studies of dansyl-CaM, fluorescence was monitored at room temperature with a SLMAminco model 8000 series 2 spectrometer (Spectronic Instruments, Rochester, NY) at an excitation wavelength of 340 nm, and emission wavelengths from 425 to 600 nm.
Figure 4 CaM binding motifs in the i3 loop and carboxyl terminal tail of the AT1A receptor. A, Alignment of CaM binding motifs. […] Fluorescence emission spectra of dansyl-CaM (106 nM) at an emission wavelength of 425–600 nm were measured in the presence of 10 mM EGTA, 0.1 mM calcium, 500 nM ATi3 (214–231) +0.1 mM calcium, and 500 nM ATct (302–317) +0.1 mM calcium. […] Spectra were corrected for background buffer fluorescence. […]

Substance: GST-ATi3N(213–234)L217A: L217A mutant of GST-ATi3N(213–234) ({GST}-TSYTAIWKALKKAYEIQKNKPR)
relative binding efficiency for CaM versus wild type (in words) [1]: did not have reduced binding efficiencies

relative binding efficiency for CaM [1]: 29 % of wild type
Substance: GST-ATctN(297–324)F309A: F309A mutant of GST-ATctN(297–324) ({GST}-LNPLFYGFLGKKAKKYFLQLLKYIPPKA)

Gβγ binding to GST-fusion protein in the presence of 2 pmol of CaM [2]: 95%
Gβγ binding to GST-fusion protein in the presence of 10 pmol of CaM [2]: 94%
Substance: GST-ATi3(W219A): W219A mutant of GST-ATi3(213–242) ({GST}-TSYTLIAKALKKAYEIQKNKPRNDDIFRII)

Substance: GST-ATctN(297–324)Y312A: Y312A mutant of GST-ATctN(297–324) ({GST}-LNPLFYGFLGKKFKKAFLQLLKYIPPKA)
relative binding efficiency for CaM versus wild type (in words) [1]: did not have reduced binding efficiencies

Substance: GST-ATi3N(213–234)Y215A: Y215A mutant of GST-ATi3N(213–234) ({GST}-TSATLIWKALKKAYEIQKNKPR)
relative binding efficiency for CaM versus wild type (in words) [1]: did not have reduced binding efficiencies

Substance: ATi3N (213–234): GST-N-terminus of the i3 loop, GST-TSYTLIWKALKKAYEIQKNKPR ({GST}-TSYTLIWKALKKAYEIQKNKPR)
interaction with purified CaM (pull-down, in words) [1]: interact with purified CaM

relative binding efficiency for CaM [1]: 32 % of wild type
Substance: GSTATi3N(213–234)W219A: W219A mutant of GST-ATi3N(213–234) ({GST}-TSYTLIAKALKKAYEIQKNKPR)

Substance: ATi3C (235–242): GST-C-terminus of the i3 loop, amino acids 235–242, peptide NDDIFRIT
interaction with purified CaM (pull-down, in words) [1]: no interactions with CaM

Gβγ binding to GST-fusion protein in the presence of 2 pmol of CaM [2]: 77%
Gβγ binding to GST-fusion protein in the presence of 10 pmol of CaM [2]: 60%
Substance: GSTATi3(213–242): GST fused to the i3 loop of AT1A receptor, GST-TSYTLIWKALKKAYEIQKNKPRNDDIFRII ({GST}-TSYTLIWKALKKAYEIQKNKPRNDDIFRII)
interaction with purified CaM (pull-down, in words) [1]: associated
association with CaM from rat brain lysates (pull-down, in words) [3]: associated

Substance: ATctN (297–324): GST-N-terminus of carboxyl tail, GST-LNPLFYGFLGKKFKKYFLQLLKYIPPKA ({GST}-LNPLFYGFLGKKFKKYFLQLLKYIPPKA)
interaction with purified CaM (pull-down, in words) [1]: interact with purified CaM

relative binding efficiency for CaM [1]: 22 % of wild type
Substance: GST-ATctN(297–324)F313A: F313A mutant of GST-ATctN(297–324) ({GST}-LNPLFYGFLGKKFKKYALQLLKYIPPKA)

Substance: Angiotensin II (DRVYIHPF; Angiotensin-2; UniProt P01019 25-32, looked up) [Ang II, AT1A receptor agonist]
effect on magnitude of the BRET ratio of the co-transfectants [4]: did not alter

λmax of dansyl-CaM fluorescence emission spectrum in presence of peptide [5]: 486 nm
Substance: SYTLIWKALKKAYEIQKN [ATi3(214–231)]

Substance: ATctC (325–359): GST-C-terminus of carboxyl tail, GST-KSHSSLSTKMSTLSYRPSDNMSSSAKKPASCFEVE ({GST}-KSHSSLSTKMSTLSYRPSDNMSSSAKKPASCFEVE)
interaction with purified CaM (pull-down, in words) [1]: no interactions with CaM

— publication PMC3673938, “Two Distinct Calmodulin Binding Sites in the Third Intracellular Loop and Carboxyl Tail of Angiotensin II (AT1A) Receptor” (PLoS ONE, 2013)
